Columns and labels:
[1] = Acute toxic test (LD50, up-down method); conditions: in vivo; oral, male SD rat, 72 hours after administration
Protocol: Each of the compounds shown in Table 2 was suspended in a 0.5% carboxymethylcellulose solution and administered orally to a male SD rat (5 weeks old). Upon the lapse of 72 hours after the administration, the LD50 value was determined by the up-down method.

peritoneal cells = test: Inhibitory effects on histamine release (sensitized rat peritoneal cells, OA challenge); type: cell-based, male Sprague-Dawley (SD) rat; conditions: 10 min at 37° C., OA added simultaneously; for minimal effective concentration: 10 min, read-out: Inhibition of Histamine release (lowest effective concentration to inhibit the release of histamine)
Protocol: An anti-ovalbumin (OA) mouse serum (IgE like antibody, PCA titer; 1:400-1:800) was diluted 20 times with physiological saline. A male Sprague-Dawley (SD) rat weighing 300-400 g was passively sensitized by intraperitoneal administration of 5 ml of the diluted serum. 48 Hours later, the rat was decapitated and exsanguinated. 10 ml of Tyrode's solution containing 5 units/ml of heparin was then injected into the peritoneal cavity of the rat. After mixing the solution by gentle massage for 60 seconds, the fluid in the peritoneal cavity was collected and then centrifuged for 5 minutes at 120×g to harvest peritoneal cells. The peritoneal cells were suspended in Tyrode's solution so as to adjust the concentration of 10^6 cells/ml. After preincubating 1.6 ml of the cell suspension for 4 minutes at 37° C., 0.2 ml of each test compound solution and 0.2 ml of OA solution (100 μg/ml) were added simultaneously and thereafter incubated for 10 minutes at 37° C. The reaction was terminated by ice-cooling the mixture, and the thus incubated solution was centrifuged for 5 minutes at 670×g to divide the same into a cell pellet and a supernatant liquid phase. The histamine content in each of the phases was determined by the fluorometric method of Grant et al*. Each tested pharmaceutical compound was used by dissolving it in Tyrode's solution prior to its use.
*Grant, J. A., Settle, L., Whorton, E. B. and Dupree, E., Complement-mediated releast of histamine from human basophils: II. Biochemical characterization of the reaction, J. Immunol., 117, 450 (1976)
The results of tests (1) and (2) are shown in Table 1 in which each figure in the "Inhibition of Histamine Release" column denotes the lowest effective concentration to inhibit the release of histamine.

[2] = test system: passive cutaneous anaphylaxis (PCA); test: Inhibitory effects on passive cutaneous anaphylaxis (PCA); type: in vivo, male SD rat; conditions: 100 mg/kg orally one hour prior to the antigen challenge, rat; for inhibition in vivo at 100 mg/kg: po, 1 h, read-out: P C A (p.o), degree of inhibition
Protocol: A male SD rat weighing about 300 g was used, whose hair on the back had been shaved with an electric clipper. The back skin was passively sensitized by intradermal injection of 0.1 ml of anti-OA mouse serum (IgE like antibody) which had been diluted to three concentration levels. 4 Hours later, the rat was challenged by intravenous injection of an antigen solution of 2 ml/kg containing OA (1 mg/ml) and Evans blue (0.5 mg/ml). 30 Minutes after the antigen challenge, the rat was decapitated and exsanguinated. Then, the skin was reflected, and the area of blue spots was measured in milimeters by multiplying the longer diameter by the shorter diameter. […] The degree of inhibition of the test compound is expressed by the following notations.
±: 0-25% inhibition with no significant difference from the control
±: 25-50% inhibition with a significant difference from the control
++: 50-75% inhibition with a significant difference from the control
+++: 75-100% inhibition with a significant difference from the control
Each test pharmaceutical compound was suspended in a 0.2% carboxymethylcellulose solution and administered orally at a rate of 100 mg/kg one hour prior to the antigen challenge. Disodium cromoglycate which was known as an anti-allergic drug was employed as a control or reference substance.

O=c1c2c(oc3ccc(-c4nnn[nH]4)cc13)CCCC2 [Example 2-Tz, 1,2,3,4-Tetrahydro-7-(5'-tetrazolyl)-9-xanthone] gave an LD50 at 72 h [1] greater than 4000 mg/kg and a minimal effective concentration (peritoneal cells) of 0.01 µg/mL.
O=C(O)c1ccc2oc3c(c(=O)c2c1)CCCC3 [Example 2-COOH, 5,6,7,8-Tetrahydro-9-oxo-xanthene-2-carboxylic acid] gave an LD50 at 72 h [1] greater than 4000 mg/kg and a minimal effective concentration (peritoneal cells) of 10 µg/mL.
In the case of CC1CCc2oc3ccc(C(=O)O)cc3c(=O)c2C1 (stereo not drawn) [2-COOH 7-CH3, 7-methyl-5,6,7,8-tetrahydro-9-oxo-xanthene-2-carboxylic acid], the minimal effective concentration (peritoneal cells) is reported as 0.3 µg/mL.
Compound O=C(O)C1CCc2oc3ccc(-c4nnn[nH]4)cc3c(=O)c2C1 (stereo not drawn) [2-Tz 7-COOH] has a minimal effective concentration (peritoneal cells) of 0.01 µg/mL.
In the case of O=C(OC1CCc2oc3ccc(-c4nnn[nH]4)cc3c(=O)c2C1)c1ccccc1 (stereo not drawn), the minimal effective concentration (peritoneal cells) is reported as 10 µg/mL.
O=C(O)c1cc(=O)c2c(OCC(O)COc3cccc4oc(C(=O)O)cc(=O)c34)cccc2o1 [Disodium cromoglycate, reference compound] showed a minimal effective concentration (peritoneal cells) of 3 µg/mL and an inhibition in vivo at 100 mg/kg [2] of 0 to 25%.
Compound O=C(Nc1nnn[nH]1)c1ccc2oc3c(c(=O)c2c1)CCCC3 [Example 2-CONHTz, 5,6,7,8-tetrahydro-N-(5'-tetrazolyl)-9-oxo-xanthene-2-carboxylic acid amide] has a minimal effective concentration (peritoneal cells) of 0.1 µg/mL.
For CC1CCc2oc3ccc(-c4nn[nH]n4)cc3c(=O)c2C1 (stereo not drawn) [2-Tz 7-CH3, 2-methyl-1,2,3,4-tetrahydro-7-(5'tetrazolyl)-9-xanthone], the “Inhibition of Histamine release (lowest effective concentration to inhibit the release of histamine)” value (peritoneal cells) was 0.01 µg/mL and the “P C A (p.o), degree of inhibition” value [2] was “± (0-25% inhibition with no significant difference from the control)”.
O=C(Nc1ccccc1C(=O)O)c1ccc2oc3c(c(=O)c2c1)CCCC3 [drawing 25] showed an LD50 at 72 h [1] greater than 4000 mg/kg.
Work on Cc1ccc2c(=O)c3c(oc2c1)CCC(C(=O)Nc1ccccc1C(=O)O)C3 (stereo not drawn) [drawing 19] yielded a minimal effective concentration (peritoneal cells) of 3 µg/mL.
For O=C(O)c1ccc2c(=O)c3c(oc2c1)CCCC3 [Example 3-COOH, 5,6,7,8-tetrahydro-9-oxo-xanthene-3-carboxylic acid], the minimal effective concentration (peritoneal cells) was 10 µg/mL.
Work on CC(C)(C)C1CCc2oc3ccc(-c4nnn[nH]4)cc3c(=O)c2C1 (stereo not drawn) [2-Tz 7-tert.Bu, 2-(t-butyl)-1,2,3,4-tetrahydro-7-(5'-tetrazolyl)-9-xanthone] yielded a minimal effective concentration (peritoneal cells) of 0.1 µg/mL.
Work on Cc1ccc2c(=O)c3c(oc2c1)CCC(c1nnn[nH]1)C3 (stereo not drawn) [3-CH3 7-Tz, 6-Methyl-1,2,3,4-tetrahydro-2-(5'-tetrazolyl)-9-oxo-xanthene] yielded a minimal effective concentration (peritoneal cells) of 1 µg/mL.
In the case of CC1CCc2oc3ccc(C(=O)Nc4ccccc4C(=O)O)cc3c(=O)c2C1 (stereo not drawn), the minimal effective concentration (peritoneal cells) is reported as 0.3 µg/mL and the inhibition in vivo at 100 mg/kg [2] is reported as 0 to 25%.
Work on Cc1ccc2c(=O)c3c(oc2c1)CCC(C(=O)Nc1nnn[nH]1)C3 (stereo not drawn) [3-CH3 7-CONHTz] yielded a minimal effective concentration (peritoneal cells) of 3 µg/mL and an inhibition in vivo at 100 mg/kg [2] of 0 to 25%.
In the case of Cc1ccc2c(=O)c3c(oc2c1)CCC(C(=O)Nc1ccccc1C(=O)O)C3 (stereo not drawn) [drawing 26], the LD50 at 72 h [1] is reported as greater than 4000 mg/kg.
For Cc1cc(C(=O)O)cc2c(=O)c3c(oc12)CCCC3 [2-COOH 4-CH3, 4-methyl-5,6,7,8-tetrahydro-9-oxo-xanthene-2-carboxylic acid], the inhibition in vivo at 100 mg/kg [2] was 50 to 75%.
Cc1cc(-c2nnn[nH]2)cc2c(=O)c3c(oc12)CCCC3 [2-Tz 4-CH3, 4-methyl-5,6,7,8-tetrahydro-2-(5'-tetrazolyl)-9-xanthone] gave a minimal effective concentration (peritoneal cells) of 0.1 µg/mL.
For O=C(Nc1ccccc1C(=O)O)c1ccc2oc3c(c(=O)c2c1)CCCC3 [drawing 20], the minimal effective concentration (peritoneal cells) was 1 µg/mL and the “P C A (p.o), degree of inhibition” value [2] was “+ +”.
Work on CC1CCc2oc3cc(-c4nnn[nH]4)ccc3c(=O)c2C1 (stereo not drawn) [3-Tz 7-CH3, 2-methyl-1,2,3,4-tetrahydro-6-(5'-tetrazolyl)-9-xanthone] yielded an inhibition in vivo at 100 mg/kg [2] of 50 to 75%.
CC(C)(C)C1CCc2oc3ccc(C(=O)Nc4nnn[nH]4)cc3c(=O)c2C1 (stereo not drawn) [2-CONHTz 7-tert.Bu, 7-(t-butyl)-5,6,7,8-tetrahydro-N-(5'-tetrazolyl)-9-oxo-xanthene-2-carboxylic acid amide] gave a minimal effective concentration (peritoneal cells) of 1 µg/mL and an inhibition in vivo at 100 mg/kg [2] of 0 to 25%.
Compound CC(C)(C)C1CCc2oc3ccc(C(=O)O)cc3c(=O)c2C1 (stereo not drawn) [2-COOH 7-tert.Bu, 7-(t-butyl)-5,6,7,8-tetrahydro-9-oxo-xanthene-2-carboxylic acid] has a minimal effective concentration (peritoneal cells) of 0.3 µg/mL and an inhibition in vivo at 100 mg/kg [2] of 75 to 100%.
With O=c1c2c(oc3cc(-c4nnn[nH]4)ccc13)CCCC2 [Example 3-Tz, 5,6,7,8-tetrahydro-3-(5'-tetrazolyl)-9-xanthone] the minimal effective concentration (peritoneal cells) was 0.3 µg/mL and the inhibition in vivo at 100 mg/kg [2] was 50 to 75%.
